According to ChEMBL document CHEMBL1123948, “Synthesis and biological evaluation of poly-gamma-glutamyl metabolites of 10-deazaaminopterin and 10-ethyl-10-deazaaminopterin” (J Med Chem, 1988):
Values joined by “and” are separate entries in the source; they are usually repeats but may differ in a detail not shown here. Equal values may be shown once.

Assays:
[1] = biological target: T1, Dihydrofolate reductase (Lactobacillus casei, UniProt P00381); test: Inhibitory activity against dihydrofolate reductase in Lactobacillus casei was determined (glutamate residue 2); assay type: functional, Lacticaseibacillus casei
T1 sequence (P00381 whole entry): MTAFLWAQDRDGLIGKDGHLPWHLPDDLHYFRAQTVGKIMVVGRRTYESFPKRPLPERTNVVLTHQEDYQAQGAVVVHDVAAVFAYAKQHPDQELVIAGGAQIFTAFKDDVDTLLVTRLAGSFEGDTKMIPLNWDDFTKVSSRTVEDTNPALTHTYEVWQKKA

[2] = biological target: T1, Dihydrofolate reductase; test: Inhibitory activity against dihydrofolate reductase in Lactobacillus casei was determined (glutamate residue 3); assay type: functional, Lacticaseibacillus casei
[3] = biological target: T1, Dihydrofolate reductase; test: Inhibitory activity against dihydrofolate reductase in Lactobacillus casei was determined (glutamate residue 4); assay type: functional, Lacticaseibacillus casei
[4] = biological target: T1, Dihydrofolate reductase; test: Inhibitory activity against dihydrofolate reductase in Lactobacillus casei was determined (glutamate residue 5); assay type: functional, Lacticaseibacillus casei
[5] = biological target: T1, Dihydrofolate reductase; test: Inhibitory activity against dihydrofolate reductase in Lactobacillus casei was determined (glutamate residue 6); assay type: functional, Lacticaseibacillus casei
[6] = system: Lacticaseibacillus casei; test: Inhibitory activity against thymidylate synthase in Lactobacillus casei was determined (glutamate residue 2); assay type: functional, organism-based
[7] = system: Lacticaseibacillus casei; test: Inhibitory activity against thymidylate synthase in Lactobacillus casei was determined (glutamate residue 3); assay type: functional, organism-based
[8] = system: Lacticaseibacillus casei; test: Inhibitory activity against thymidylate synthase in Lactobacillus casei was determined (glutamate residue 4); assay type: functional, organism-based
[9] = system: Lacticaseibacillus casei; test: Inhibitory activity against thymidylate synthase in Lactobacillus casei was determined (glutamate residue 5); assay type: functional, organism-based
[10] = system: Lacticaseibacillus casei; test: Inhibitory activity against the growth of Lactobacillus casei (ATCC 7469) was determined (glutamate residue 1); assay type: functional, organism-based
[11] = system: Lacticaseibacillus casei; test: Inhibitory activity against the growth of Lactobacillus casei (ATCC 7469) was determined (glutamate residue 2); assay type: functional, organism-based
[12] = system: Lacticaseibacillus casei; test: Inhibitory activity against the growth of Lactobacillus casei (ATCC 7469) was determined (glutamate residue 3); assay type: functional, organism-based
[13] = system: Lacticaseibacillus casei; test: Inhibitory activity against the growth of Lactobacillus casei (ATCC 7469) was determined (glutamate residue 4); assay type: functional, organism-based
[14] = system: Lacticaseibacillus casei; test: Inhibitory activity against the growth of Lactobacillus casei (ATCC 7469) was determined (glutamate residue 5); assay type: functional, organism-based
[15] = system: Lacticaseibacillus casei; test: Inhibitory activity against the growth of Lactobacillus casei (ATCC 7469) was determined (glutamate residue 6); assay type: functional, organism-based
[16] = system: Lacticaseibacillus casei; test: Inhibitory activity against thymidylate synthase in Lactobacillus casei was determined (glutamate residue 1); assay type: functional, organism-based
[17] = system: Lacticaseibacillus casei; test: Inhibitory activity against thymidylate synthase in Lactobacillus casei was determined (glutamate residue 6); assay type: functional, organism-based
[18] = system: Enterococcus hirae (Streptococcus faecium ATCC 8043); test: Inhibitory activity against the growth of Streptococcus faecium (ATCC 8043) was determined (glutamate residue 6)

Row | SMILES | IC50 [1] | IC50 [2] [nM] | IC50 [3] [nM] | IC50 [4] [nM] | IC50 [5] [nM] | IC50 [6] [µM] | IC50 [7] [µM] | IC50 [8] [µM] | IC50 [9] [µM] | IC50 [10] [nM] | IC50 [11] [nM] | IC50 [12] [nM] | IC50 [13] [nM] | IC50 [14] [nM] | IC50 [15] [nM] | IC50 [16] [µM] | IC50 [17] [nM] | IC50 [18] [µM]
1 | Nc1nc(N)c2nc(CCc3ccc(C(=O)N[C@@H](CCC(=O)O)C(=O)O)cc3)cnc2n1 | 18 nM and 24 nM | 22 | 20 | 21 | 34 | 88 | 11 | 5.5 | 3.5 | 0.08 | 0.09 | 0.6 | 3 | 14 | 90 | > 300 | 2300 | > 3
2 | CCC(Cc1cnc2nc(N)nc(N)c2n1)c1ccc(C(=O)N[C@@H](CCC(=O)O)C(=O)O)cc1 (stereo not given in full) [EDATREXATE] |  |  |  |  |  | 170 | 28 | 14 | 7.4 | 0.63 | 0.16 | 1 | 9 | 90 |  | > 300 |  | 
3 | CN(Cc1cnc2nc(N)nc(N)c2n1)c1ccc(C(=O)N[C@@H](CCC(=O)O)C(=O)O)cc1 [METHOTREXATE] |  |  |  |  |  | 6 | 1.1 | 0.18 | 0.28 |  | 0.09 | 0.2 | 0.8 | 2.2 | 27 | 100 | 280 | > 8
